Several values for one entry are separate records, joined by “and”; a condition that tells them apart may be missing. Equal entries are not always repeated.
Key:
Cavia porcellus [1] = species on record: Cavia porcellus; assay: Chronotropic activity on left and right guinea pig artia (beats/min), at 60 min; type: functional
Felis catus [2] = assay: Effect of intraperitoneal infusion on respiration frequency in Anesthetized cats at a dose of 200 mg/kg at 60 min; type: functional
Felis catus [3] = assay: Effect of intravenous infusion on cardiac frequency in Anesthetized cats at a dose of 0.00 mg/kg at 0 min; type: functional, Heart
Felis catus [4] = assay: Effect of intraperitoneal infusion on diastolic pressure in Anesthetized cats at a dose of 200 mg/kg at 135 min; type: functional
Felis catus [5] = assay: Effect of intraperitoneal infusion on systolic pressure in Anesthetized cats at a dose of 200 mg/kg at 105 min; type: functional
Felis catus [6] = assay: Effect of intraperitoneal infusion of compound on cardiac frequency in Anesthetized cats at a dose of 200 mg/kg at 150 min; type: functional, Heart
Felis catus [7] = assay: Effect of intraperitoneal infusion on diastolic pressure in Anesthetized cats at a dose of 200 mg/kg at 180 min; type: functional
Felis catus [8] = assay: Effect of intravenous infusion on respiration frequency in Anesthetized cats at a dose of 0 mg/kg at 0 min; type: functional
Felis catus [9] = assay: Effect of intraperitoneal infusion on systolic pressure in Anesthetized cats at a dose of 200 mg/kg at 75 min; type: functional
Felis catus [10] = assay: Effect of intraperitoneal infusion on respiration frequency in Anesthetized cats at a dose of 200 mg/kg at 45 min; type: functional
Felis catus [11] = assay: Effect of intraperitoneal infusion of compound on cardiac frequency in Anesthetized cats at a dose of 200 mg/kg at 165 min; type: functional, Heart
Felis catus [12] = assay: Effect of intraperitoneal infusion on systolic pressure in Anesthetized cats at a dose of 200 mg/kg at 150 min; type: functional
Mus musculus = species on record: Mus musculus; assay: Dose required to protect 50% of tested mice against experimental antithrombosis.; type: functional
Felis catus [13] = assay: Effect of intraperitoneal infusion of compound on cardiac frequency in Anesthetized cats at a dose of 200 mg/kg at 60 min; type: functional, Heart
Felis catus [14] = assay: Effect of intravenous infusion on cardiac frequency in Anesthetized cats at a dose of 0.30 mg/kg at 2 min; type: functional, Heart; conditions: dose 0.3 mg/kg
Felis catus [15] = assay: Effect of intravenous infusion on diastolic pressure in Anesthetized cats at a dose of 0 mg/kg at 0 min; type: functional
Felis catus [16] = assay: Effect of intraperitoneal infusion on diastolic pressure in Anesthetized cats at a dose of 200 mg/kg at 45 min; type: functional
Felis catus [17] = assay: Effect of intraperitoneal infusion on diastolic pressure in Anesthetized cats at a dose of 200 mg/kg at 30 min; type: functional
Felis catus [18] = assay: Effect of intraperitoneal infusion on respiration frequency in Anesthetized cats at a dose of 200 mg/kg at 165 min; type: functional
Felis catus [19] = assay: Effect of intraperitoneal infusion of compound on cardiac frequency in Anesthetized cats at a dose of 200 mg/kg at 120 min; type: functional, Heart
Cavia porcellus [20] = species on record: Cavia porcellus; assay: Chronotropic activity on left and right guinea pig artia (beats/min), at 75 min; type: functional
Felis catus [21] = assay: Effect of intraperitoneal infusion on systolic pressure in Anesthetized cats at a dose of 200 mg/kg at 45 min; type: functional
Cavia porcellus [22] = species on record: Cavia porcellus; assay: Effect on guinea pig artia (beats/min), at the a dose of 10e-6 M; type: functional
Felis catus [23] = assay: Effect of intraperitoneal infusion on systolic pressure in Anesthetized cats at a dose of 200 mg/kg at 90 min; type: functional
Felis catus [24] = assay: Effect of intravenous infusion on systolic pressure in Anesthetized cats at a dose of 0.75 mg/kg at 5 min; type: functional
Felis catus [25] = assay: Effect of intraperitoneal infusion on systolic pressure in Anesthetized cats at a dose of 200 mg/kg at 15 min; type: functional
Felis catus [26] = assay: Effect of intravenous infusion on respiration frequency in Anesthetized cats at a dose of 0.75 mg/kg at 5 min; type: functional
Felis catus [27] = assay: Effect of intravenous infusion on cardiac frequency in Anesthetized cats at a dose of 0.15 mg/kg at 1 min; type: functional, Heart
Felis catus [28] = assay: Effect of intraperitoneal infusion of compound on cardiac frequency in Anesthetized cats at a dose of 200 mg/kg at 90 min; type: functional, Heart
Felis catus [29] = assay: Effect of intraperitoneal infusion on diastolic pressure in Anesthetized cats at a dose of 200 mg/kg at 90 min; type: functional
Felis catus [30] = assay: Effect of intraperitoneal infusion on respiration frequency in Anesthetized cats at a dose of 200 mg/kg at 120 min; type: functional
Felis catus [31] = assay: Effect of intravenous infusion on systolic pressure in Anesthetized cats at a dose of 2.25 mg/kg at 15 min; type: functional
Cavia porcellus [32] = species on record: Cavia porcellus; assay: Effect on guinea pig artia (beats/min), at the a dose of 0 M; type: functional
Felis catus [33] = assay: Effect of intraperitoneal infusion of compound on cardiac frequency in Anesthetized cats at a dose of 200 mg/kg at 75 min; type: functional, Heart
Oryctolagus cuniculus = species on record: Oryctolagus cuniculus; assay: Effect on 35 mM K+-induced contraction on rabbit aorta at a dose of 10E-9 mol/L; type: functional
Felis catus [34] = assay: Effect of intraperitoneal infusion on systolic pressure in Anesthetized cats at a dose of 200 mg/kg at 135 min; type: functional
Cavia porcellus [35] = species on record: Cavia porcellus; assay: Chronotropic activity on left and right guinea pig artia (beats/min), at 90 min; type: functional
Felis catus [36] = assay: Effect of intraperitoneal infusion of compound on cardiac frequency in Anesthetized cats at a dose of 200 mg/kg at 0 min; type: functional, Heart
Felis catus [37] = assay: Effect of intraperitoneal infusion of compound on cardiac frequency in Anesthetized cats at a dose of 200 mg/kg at 45 min; type: functional, Heart
Felis catus [38] = assay: Effect of intraperitoneal infusion on diastolic pressure in Anesthetized cats at a dose of 200 mg/kg at 15 min; type: functional
Felis catus [39] = assay: Effect on respiration frequency in Anesthetized cats at a dose of 2.25 mg/kg at 15 min; type: functional
Cavia porcellus [40] = species on record: Cavia porcellus; assay: Chronotropic activity on left and right guinea pig artia (beats/min), at 45 min; type: functional
Felis catus [41] = assay: Effect of intraperitoneal infusion on diastolic pressure in Anesthetized cats at a dose of 200 mg/kg at 165 min; type: functional
Felis catus [42] = assay: Effect of intraperitoneal infusion on systolic pressure in Anesthetized cats at a dose of 200 mg/kg at 60 min; type: functional
Cavia porcellus [43] = species on record: Cavia porcellus; assay: Chronotropic activity on left and right guinea pig artia (beats/min), at 180 min; type: functional
Felis catus [44] = assay: Effect of intraperitoneal infusion on systolic pressure in Anesthetized cats at a dose of 200 mg/kg at 30 min; type: functional
Felis catus [45] = assay: Effect of intraperitoneal infusion on respiration frequency in Anesthetized cats at a dose of 200 mg/kg at 90 min; type: functional
Felis catus [46] = assay: Effect of intraperitoneal infusion on respiration frequency in Anesthetized cats at a dose of 200 mg/kg at 150 min; type: functional

For `CCO/C(O)=C1\C(C)=NC(C)=C(C(=O)OCCN2C(=O)c3ccccc3S2(=O)=O)C1C` (stereo not given), the Beats/min (Cavia porcellus [1]) was 136, the Control (Cavia porcellus [1]) was 99.3% and the Respiratory frequency (Felis catus [2]) was 13 r.p.m. It also gave a Cardiac frequency (Felis catus [3]) of 190 beats min-1, an Arterial pressure (Felis catus [4]) of 80 mmHg and an Arterial pressure (Felis catus [5]) of 140 mmHg. The Cardiac frequency (Felis catus [6]) was 265 beats min-1, the Arterial pressure (Felis catus [7]) was 80 mmHg and the Respiratory frequency (Felis catus [8]) was 18 r.p.m. The Arterial pressure (Felis catus [9]) was 137 mmHg, the Respiratory frequency (Felis catus [10]) was 14 r.p.m and the Cardiac frequency (Felis catus [11]) was 278 beats min-1. For the same molecule, the Arterial pressure (Felis catus [12]) was 140 mmHg, the ED50 (Mus musculus) was 2.23 µmol/kg and 1 mg/kg and the Cardiac frequency (Felis catus [13]) was 256 beats min-1. The Cardiac frequency (Felis catus [14]) was 190 beats min-1, the Arterial pressure (Felis catus [15]) was 115 mmHg and the Arterial pressure (Felis catus [16]) was 85 mmHg. It also gave an Arterial pressure (Felis catus [17]) of 90 mmHg, a Respiratory frequency (Felis catus [18]) of 15 r.p.m and a Cardiac frequency (Felis catus [19]) of 261 beats min-1. It also gave a Beats/min (Cavia porcellus [20]) of 134, a Control (Cavia porcellus [20]) of 97.8% and an Arterial pressure (Felis catus [21]) of 125 mmHg. For the same molecule, the Beats/min (Cavia porcellus [22]) was 181, the Control (Cavia porcellus [22]) was 98.5% and the Arterial pressure (Felis catus [23]) was 138 mmHg. The Arterial pressure (Felis catus [24]) was 162 mmHg, the Arterial pressure (Felis catus [25]) was 130 mmHg and the Respiratory frequency (Felis catus [26]) was 19 r.p.m. For the same molecule, the Cardiac frequency (Felis catus [27]) was 190 beats min-1, the Cardiac frequency (Felis catus [28]) was 256 beats min-1 and the Arterial pressure (Felis catus [29]) was 85 mmHg. The Respiratory frequency (Felis catus [30]) was 13 r.p.m, the Arterial pressure (Felis catus [31]) was 162 mmHg and the Beats/min (Cavia porcellus [32]) was 183. The Control (Cavia porcellus [32]) was 100%, the Cardiac frequency (Felis catus [33]) was 255 beats min-1 and the Inhibition (Oryctolagus cuniculus) was 0%. The Arterial pressure (Felis catus [34]) was 140 mmHg, the Beats/min (Cavia porcellus [35]) was 133 and the Control (Cavia porcellus [35]) was 97.1%. For the same molecule, the Cardiac frequency (Felis catus [36]) was 260 beats min-1, the Cardiac frequency (Felis catus [37]) was 245 beats min-1 and the Arterial pressure (Felis catus [38]) was 90 mmHg. The Respiratory frequency (Felis catus [39]) was 19 r.p.m, the Beats/min (Cavia porcellus [40]) was 138 and the Control (Cavia porcellus [40]) was 100.4%. It also gave an Arterial pressure (Felis catus [41]) of 80 mmHg, an Arterial pressure (Felis catus [42]) of 130 mmHg and a Beats/min (Cavia porcellus [43]) of 130. For the same molecule, the Control (Cavia porcellus [43]) was 94.9%, the Arterial pressure (Felis catus [44]) was 135 mmHg and the Respiratory frequency (Felis catus [45]) was 12 r.p.m. The Respiratory frequency (Felis catus [46]) was 15 r.p.m.
